target: human MGL from HeLa cells (Homo sapiens (Human), UniProt Q99685); test: MGL in vitro activity assay ([glycerol-1,3-3H]-oleoyl glycerol cleavage, activated carbon filter); type: biochemical; details: not given
Description: The assay consists of combining endogenously expressed MGL from HeLa cells with test compounds, adding[glycerol-1,3-^3H]-oleoyl glycerol, incubating for one hour, and then measuring the amount of cleaved[1,3-^3H]-glycerol that passes through an activated carbon filter. The amount of cleaved, tritiated glycerol passing through the carbon filter is proportional to the activity of the MGL enzyme in a particular well/test condition.
Standard conditions for this assay combine 300 nM [Glycerol-1,3-^3H]-oleoyl glycerol with human MGL from HeLa cells and test compounds for one hour, after which the reaction is filtered through activated carbon and tritium is measured in the flow through. […] MGL is the predominant hydrolase in HeLa cells/cell homogenates.

Sequence of human MGL from HeLa cells (Q99685 whole entry): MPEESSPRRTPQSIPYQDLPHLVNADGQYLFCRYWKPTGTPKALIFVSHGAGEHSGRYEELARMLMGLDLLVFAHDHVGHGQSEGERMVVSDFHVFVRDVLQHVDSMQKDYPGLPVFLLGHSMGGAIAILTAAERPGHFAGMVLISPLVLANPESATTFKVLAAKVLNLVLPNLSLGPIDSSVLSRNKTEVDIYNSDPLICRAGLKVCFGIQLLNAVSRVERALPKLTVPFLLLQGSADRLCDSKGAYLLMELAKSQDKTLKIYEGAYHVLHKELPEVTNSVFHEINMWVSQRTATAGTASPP

Q: `Cc1ccc(C23CCN(C(=O)[C@H]4C[C@]5(COC(=O)N5)C4)CC2C3)cc1OC(F)(F)F` (mixture of isomers) [Example 75, (rac)-(2s,4s)-2-(6-(4-Methyl-3-(trifluoromethoxy)phenyl)-3-azabicyclo[4.1.0]heptane-3-carbonyl)-7-oxa-5-azaspiro[3.4]octan-6-one] was tested. Which IC50 did it give?
A: 0.34 nM

Q: For `Cc1ccc(C23CCN(C(=O)[C@H]4C[C@]5(CCC(=O)N5)C4)CC2C3)cc1OC(F)(F)F` (mixture of isomers) [Example 76, (rac)-(2r,4s)-2-(6-(4-Methyl-3-(trifluoromethoxy)phenyl)-3-azabicyclo[4.1.0]heptane-3-carbonyl)-5-azaspiro[3.4]octan-6-one], which IC50 is on record?
A: 2.6 nM

same assay, conditions: 300 nM [Glycerol-1,3-3H]-oleoyl glycerol, endogenously expressed MGL from HeLa cells, one hour incubation; read-out: MGL IC50

Q: With `O=C1CC[C@]2(C[C@H](C(=O)N3CCC4(c5ccc(OC(F)(F)F)cc5)CC4C3)C2)N1` (mixture of isomers) [Example 55, (rac)-(2r,4s)-2-(6-(4-(Trifluoromethoxy)phenyl)-3-azabicyclo[4.1.0]heptane-3-carbonyl)-5-azaspiro[3.4]octan-6-one] as the molecule, how does the IC50 read?
A: 10 nM

Q: Which IC50 does the source give for `Cc1ccc(C23CCN(C(=O)[C@H]4C[C@]5(COC(=O)N5)C4)CC2C3)cc1` (mixture of isomers) [Example 56, (rac)-(2s,4s)-2-(6-(p-Tolyl)-3-azabicyclo[4.1.0]heptane-3-carbonyl)-7-oxa-5-azaspiro[3.4]octan-6-one] here?
A: 7.7 nM

Q: For `O=C1N[C@]2(CO1)C[C@H](C(=O)N1CCC3(c4cccc(C(F)(F)F)c4)CC3C1)C2` (mixture of isomers) [Example 57, (rac)-(2s,4s)-2-(6-(3-(Trifluoromethyl)phenyl)-3-azabicyclo[4.1.0]heptane-3-carbonyl)-7-oxa-5-azaspiro[3.4]octan-6-one], which IC50 is on record?
A: 1.9 nM

Q: Which IC50 does the source give for `CC(C)(C)c1cccc(C23CCN(C(=O)[C@H]4C[C@]5(COC(=O)N5)C4)CC2C3)c1` (mixture of isomers) [Example 60, (rac)-(2s,4s)-2-(6-(3-(tert-Butyl)phenyl)-3-azabicyclo[4.1.0]heptane-3-carbonyl)-7-oxa-5-azaspiro[3.4]octan-6-one] here?
A: 0.0072 nM

Q: How did the IC50 turn out when `CC(C)(C)c1cccc(C23CCN(C(=O)[C@H]4C[C@]5(CCC(=O)N5)C4)CC2C3)c1` (mixture of isomers) [Example 61, (rac)-(2r,4s)-2-(6-(3-(tert-Butyl)phenyl)-3-azabicyclo[4.1.0]heptane-3-carbonyl)-5-azaspiro[3.4]octan-6-one] was run?
A: 0.25 nM

Q: `CC(C)(C)c1ccc(C23CCN(C(=O)[C@H]4C[C@]5(CCC(=O)N5)C4)CC2C3)cc1` (mixture of isomers) [Example 63, (rac)-(2r,4s)-2-(6-(4-(tert-Butyl)phenyl)-3-azabicyclo[4.1.0]heptane-3-carbonyl)-5-azaspiro[3.4]octan-6-one] was tested. Which IC50 did it give?
A: 0.41 nM

Q: With `O=C1N[C@]2(CO1)C[C@H](C(=O)N1CCC3(c4cccc(C5CC5)c4)CC3C1)C2` (mixture of isomers) [Example 64, (rac)-(2s,4s)-2-(6-(3-Cyclopropylphenyl)-3-azabicyclo[4.1.0]heptane-3-carbonyl)-7-oxa-5-azaspiro[3.4]octan-6-one] as the molecule, how does the IC50 read?
A: 0.65 nM

Q: How did the IC50 turn out when `O=C1CC[C@]2(C[C@H](C(=O)N3CCC4(c5cccc(C6CC6)c5)CC4C3)C2)N1` (mixture of isomers) [Example 65, (rac)-(2r,4s)-2-(6-(3-Cyclopropylphenyl)-3-azabicyclo[4.1.0]heptane-3-carbonyl)-5-azaspiro[3.4]octan-6-one] was run?
A: 4 nM

Q: How did the IC50 turn out when `O=C1N[C@]2(CO1)C[C@H](C(=O)N1CCC3(c4ccc(C5CC5)cc4)CC3C1)C2` (mixture of isomers) [Example 66, (rac)-(2s,4s)-2-(6-(4-Cyclopropylphenyl)-3-azabicyclo[4.1.0]heptane-3-carbonyl)-7-oxa-5-azaspiro[3.4]octan-6-one] was run?
A: 0.69 nM

Q: Which IC50 does the source give for `Cc1ccc(C23CCN(C(=O)[C@H]4C[C@]5(CCC(=O)N5)C4)CC2C3)cc1Cl` (mixture of isomers) [Example 68, (rac)-(2r,4s)-2-(6-(3-Chloro-4-methylphenyl)-3-azabicyclo[4.1.0]heptane-3-carbonyl)-5-azaspiro[3.4]octan-6-one] here?
A: 5.6 nM

Q: Which IC50 does the source give for `CC1(c2ccc(C34CCN(C(=O)[C@H]5C[C@]6(CCC(=O)N6)C5)CC3C4)cc2)CC1` (mixture of isomers) [Example 70, (rac)-(2r,4s)-2-(6-(4-(1-Methylcyclopropyl)phenyl)-3-azabicyclo[4.1.0]heptane-3-carbonyl)-5-azaspiro[3.4]octan-6-one] here?
A: 0.52 nM

Q: With `Cc1cc(C2CC2)ccc1C12CCN(C(=O)[C@H]3C[C@]4(COC(=O)N4)C3)CC1C2` (mixture of isomers) [Example 72, (rac)-(2s,4s)-2-(6-(4-Cyclopropyl-2-methylphenyl)-3-azabicyclo[4.1.0]heptane-3-carbonyl)-7-oxa-5-azaspiro[3.4]octan-6-one] as the molecule, how does the IC50 read?
A: 2.1 nM

Q: For `CC(C)c1cccc(C23CCN(C(=O)[C@H]4C[C@]5(COC(=O)N5)C4)CC2C3)c1` (mixture of isomers) [Example 73, (rac)-(2s,4s)-2-(6-(3-Isopropylphenyl)-3-azabicyclo[4.1.0]heptane-3-carbonyl)-7-oxa-5-azaspiro[3.4]octan-6-one], which IC50 is on record?
A: 0.25 nM

Q: Which IC50 does the source give for `O=C1N[C@]2(CO1)C[C@H](C(=O)N1CCC3CC3(c3ccccc3)C1)C2` (mixture of isomers) [Example 77, (rac)-(2s,4s)-2-(1-Phenyl-3-azabicyclo[4.1.0]heptane-3-carbonyl)-7-oxa-5-azaspiro[3.4]octan-6-one] here?
A: 241 nM

Q: For `CCc1ccc(C23CC2CN(C(=O)[C@H]2C[C@]4(COC(=O)N4)C2)C3)cc1` (mixture of isomers) [Example 94, (rac)-(2s,4s)-2-(1-(4-Ethylphenyl)-3-azabicyclo[3.1.0]hexane-3-carbonyl)-7-oxa-5-azaspiro[3.4]octan-6-one], which IC50 is on record?
A: 3.5 nM

Q: `Cc1ccccc1[C@H]1[C@@H]2CN(C(=O)[C@H]3C[C@]4(COC(=O)N4)C3)C[C@@]21C` (racemic) [Example 97, (rac)-(2s,4*S)-2-((1*R,5*S,6*R)-1-Methyl-6-(o-tolyl)-3-azabicyclo[3.1.0]hexane-3-carbonyl)-7-oxa-5-azaspiro[3.4]octan-6-one] was tested. Which IC50 did it give?
A: 180 nM

Q: Which IC50 does the source give for `Cc1ccc([C@H]2[C@@H]3CN(C(=O)[C@H]4C[C@]5(COC(=O)N5)C4)C[C@@]32C)cc1C` (racemic) [Example 102, (rac)-(2s,4*5)-2-((1*R,5*S,6*R)-6-(3,4-Dimethylphenyl)-1-methyl-3-azabicyclo[3.1.0]hexane-3-carbonyl)-7-oxa-5-azaspiro[3.4]octan-6-one] here?
A: 23 nM

Q: With `C[C@]12CN(C(=O)[C@H]3C[C@]4(COC(=O)N4)C3)C[C@H]1[C@@H]2c1cccc(C(F)(F)F)c1` (racemic) [Example 106, (rac)-(2s,4*5)-2-((1*R,5*S,6*R)-1-Methyl-6-(3-(trifluoromethyl)phenyl)-3-azabicyclo[3.1.0]hexane-3-carbonyl)-7-oxa-5-azaspiro[3.4]octan-6-one] as the molecule, how does the IC50 read?
A: 28 nM

Q: With `C[C@]12CN(C(=O)[C@H]3C[C@]4(COC(=O)N4)C3)C[C@H]1[C@@H]2c1ccc(OC(F)(F)F)cc1` (racemic) [Example 107, (rac)-(2s,4*5)-2-((1*R,5*S,6*R)-1-Methyl-6-(4-(trifluoromethoxy)phenyl)-3-azabicyclo[3.1.0]hexane-3-carbonyl)-7-oxa-5-azaspiro[3.4]octan-6-one] as the molecule, how does the IC50 read?
A: 73 nM

Q: For `C[C@]12CN(C(=O)[C@H]3C[C@]4(COC(=O)N4)C3)C[C@H]1[C@@H]2c1ccc(C2CC2)cc1` (racemic) [Example 108, (rac)-(2s,4*5)-2-((1*R,5*S,6*R)-6-(4-Cyclopropylphenyl)-1-methyl-3-azabicyclo[3.1.0]hexane-3-carbonyl)-7-oxa-5-azaspiro[3.4]octan-6-one], which IC50 is on record?
A: 38 nM

Q: Which IC50 does the source give for `Cc1ccc([C@H]2[C@@H]3CN(C(=O)[C@H]4C[C@]5(COC(=O)N5)C4)C[C@@]32C)cc1C(F)(F)F` (racemic) [Example 112, (rac)-(2s,4*S)-2-((1*R,5*S,6*R)-1-Methyl-6-(4-methyl-3-(trifluoromethyl)phenyl)-3-azabicyclo[3.1.0]hexane-3-carbonyl)-7-oxa-5-azaspiro[3.4]octan-6-one] here?
A: 6 nM

Q: Which IC50 does the source give for `Cc1ccc([C@H]2[C@@H]3CN(C(=O)[C@H]4C[C@]5(COC(=O)N5)C4)C[C@@]32C)cc1OC(F)(F)F` (racemic) [Example 114, (rac)-(2s,4*S)-2-((1*R,5*S,6*R)-1-Methyl-6-(4-methyl-3-(trifluoromethoxy)phenyl)-3-azabicyclo[3.1.0]hexane-3-carbonyl)-7-oxa-5-azaspiro[3.4]octan-6-one] here?
A: 4.1 nM

Q: With `O=C1N[C@]2(CO1)C[C@H](C(=O)N1CCC3(c4ccccc4)C(Cl)C3C1)C2` (mixture of isomers) [Example 123, (rac)-(2s,4s)-2-(7-Chloro-6-phenyl-3-azabicyclo[4.1.0]heptane-3-carbonyl)-7-oxa-5-azaspiro[3.4]octan-6-one] as the molecule, how does the IC50 read?
A: 200 nM

Q: With `O=C1N[C@]2(CO1)C[C@H](C(=O)N1CCC3(c4ccccc4)C(C1)C3(Cl)Cl)C2` (racemic) [Example 124, (rac)-(2s,4s)-2-(7,7-Dichloro-6-phenyl-3-azabicyclo[4.1.0]heptane-3-carbonyl)-7-oxa-5-azaspiro[3.4]octan-6-one] as the molecule, how does the IC50 read?
A: 32 nM

Q: With `O=C1CCC2(CC(C(=O)N3CC[C@@]4(c5cccc(OC(F)(F)F)c5)C[C@H]4C3)C2)N1` (relative stereo) [Example 119, (2r,4*5)-2-((1*R,6*5)-6-(3-(Trifluoromethoxy)phenyl)-3-azabicyclo[4.1.0]heptane-3-carbonyl)-5-azaspiro[3.4]octan-6-one] as the molecule, how does the IC50 read?
A: 5.2 nM

Q: `O=C1CCC2(CC(C(=O)N3CC[C@]4(c5cccc(OC(F)(F)F)c5)C[C@@H]4C3)C2)N1` (relative stereo) [Example 120, (2r,4*R)-2-((1*S,6*R)-6-(3-(Trifluoromethoxy)phenyl)-3-azabicyclo[4.1.0]heptane-3-carbonyl)-5-azaspiro[3.4]octan-6-one] was tested. Which IC50 did it give?
A: 23 nM

Reference: patent publication US11708359B2, “Monoacylglycerol lipase modulators” (Janssen Pharmaceutica NV, priority 2020, dated 2023)
